In publication PMC10863309 (Redox Biology, 2024):
“And” between values parts separate entries of the source, which are not always exact repeats. Identical values can stand only once. Like-named read-outs stand apart in the source and are kept apart here.

Key:
BV2 cells = assay: MTT cell viability assay; type: cell-based, mouse
[1] = system: LPS-induced NO release of BV2 microglial cells; assay: Nitrite quantification; type: cell-based, mouse; conditions: 1 h pretreatment, LPS 800 ng/ml 24 h
[2] = Mus musculus, BV-2, read-out: Cell viability IC50

Row | Compound | IC50 (BV2 cells; read-out: Cell viability IC50, BV2 microglial cells) [µM] | NO Inhibition (% of LPS) LPS/drugs (0.7 μM) [1] | NO Inhibition (% of LPS) LPS/drugs (1.5 μM) [1] | IC50 (BV2 cells; [2]) [µM] | NO Inhibition (% of LPS) LPS/drugs (3 μM) ([1]; 3 μM) | NO Inhibition (% of LPS) LPS/drugs (12 μM) ([1]; 12 μM) | NO Inhibition (% of LPS) LPS/drugs (25 μM) ([1]; 25 μM) | NO Inhibition (% of LPS) LPS/drugs (50 μM) ([1]; 50 μM)
1 | lochnericine [Compound 2] | 28.7 ± 1.2 | 11.2 ± 2.0 % of LPS | 31.3 ± 3.2 % of LPS | – | – | – | – | –
2 | CC[C@]12C=CCN3CC[C@]4(C(=C(C(=O)OC)C1)Nc1ccccc14)[C@@H]32 [Compound 7, tabersonine] | – | 18.8 ± 7.0 % of LPS | 29.3 ± 3.1 % of LPS | 16.1 ± 1.1 | 45.9 ± 2.4 % of LPS | – | – | –
3 | C[C@@H]1C[C@H]2[C@@H]3CCC4=CC(=O)C=C[C@]4(C)[C@@]3(F)[C@@H](O)C[C@]2(C)[C@@]1(O)C(=O)CO [Dexamethasone, reference compound] | – | – | – | > 100 | – | 61.9 ± 4.7 % of LPS | 71.1 % of LPS and 71.1 ± 3.0 % of LPS | 75.1 ± 1.9 % of LPS
